For three compounds, EC50, IC50 and AC50 results are on record in ChEMBL document CHEMBL1201862, “PubChem BioAssay data set” (2004).

Each structure is given as a SMILES string. Active and inactive are the calls of the source. Where only a bound is given, the exact number is not on record here.

The test system of assay [1] is HEK293. Put plainly: NOD1 signaling inhibitors, primary screen, cell-based, luminescence, uHTS (AID 1578). Format: functional. As to conditions: Homo sapiens.
Assay [2] relates to HEK293. Put plainly: cells. Format: functional, cell-based. The note with it: Homo sapiens.
Assay [3] relates to HEK293. Description: cells. Format: functional, cell-based. The note with it: Homo sapiens. This is another data set of the same source.
The target in assay [4] is Nucleotide-binding oligomerization domain-containing protein 2 (Homo sapiens, UniProt Q9HC29). Put plainly: NOD2 signaling inhibitors, cell-based, luminescence, uHTS, HEK293 (AID 1566). It is filed as functional.
Assay [5] deals with HEK293. Description: NOD2 signaling inhibitors in MDP-stimulated cells, cell-based, uHTS, luminescence (AID 2001). The note with it: Homo sapiens. It is filed as functional.
Assay [6] concerns HEK293. Description: cells. Format: functional, cell-based. The note with it: Homo sapiens. The source holds these as a separate data set.
In assay [7] the target is T1, Microphthalmia-associated transcription factor (Homo sapiens, UniProt O75030).
T1 sequence (O75030 whole entry): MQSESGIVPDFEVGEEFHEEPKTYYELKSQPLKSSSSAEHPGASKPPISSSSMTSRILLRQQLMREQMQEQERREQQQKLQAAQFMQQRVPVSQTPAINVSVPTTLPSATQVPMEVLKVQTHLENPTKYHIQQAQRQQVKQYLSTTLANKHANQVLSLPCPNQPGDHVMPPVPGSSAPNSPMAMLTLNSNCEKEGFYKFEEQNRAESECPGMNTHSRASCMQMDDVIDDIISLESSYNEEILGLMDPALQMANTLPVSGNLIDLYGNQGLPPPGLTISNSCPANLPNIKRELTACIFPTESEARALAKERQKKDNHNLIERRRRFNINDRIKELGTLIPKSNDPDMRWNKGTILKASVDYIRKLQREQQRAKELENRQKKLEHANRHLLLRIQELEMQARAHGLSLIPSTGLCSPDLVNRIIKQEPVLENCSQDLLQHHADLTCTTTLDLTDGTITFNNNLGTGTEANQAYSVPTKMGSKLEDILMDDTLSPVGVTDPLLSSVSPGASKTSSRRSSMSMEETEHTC
Description: TRPM1 promoter luciferase signal decrease, dose response, MITF inhibitor project, cell-based, SK-MEL-5, cherry-picked, set 3 (AID 493073).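 Note: SK-MEL-5 melanoma cells with luciferase driven by the MITF target TRPM1 promoter.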 It is filed as functional.

The next assay relates to INS1. Put plainly: beta cell apoptosis inhibitors, cytokine rescue, dose response, luminescence, retest (AID 449756).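 Note: cell death triggered by IL-1 beta plus TNF-alpha plus IFN-gamma mixture; protective hits raise ATP signal compared with cytokine alone wells.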 It is filed as functional, cell-based. The note with it: Rattus norvegicus.
The test system of the next assay is A-375. Put plainly: A375 melanoma cell viability reduction, dose response, counter-screen for MITF modulator project, cherry-pick samples, set 2 (AID 540335). The note with it: Homo sapiens. Format: functional, cell-based. A general note: A counterscreen serves to expose hits that act by an unwanted route or on another target.
The nature of assay [8]: inhibitors of HIV Env-driven cell fusion, dose response, cherry-pick (AID 652057). It is filed as functional, cell-based.
Assay [9] is described as follows: CEM21 lymphoblast cell cytotoxicity, dose response, cytotoxicity control for viral fusion inhibitor project, CellTiter-Glo luminescence, cherry-picked (AID 652042).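 Note: potency for signal decrease meaning cytotoxicity.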 It is filed as functional, cell-based. For orientation: Cellular ATP, detected with luciferase, serves as a proxy for viable cell number.
Assay [10] is described as follows: ZM109 Env clade C HIV-1 fusion inhibitors, dose response, HeLa effector, CEM target cells, luciferase, cherry-pick (AID 652058). It is filed as functional, cell-based.
Another assay has as its target Paired box protein Pax-8 (Homo sapiens, UniProt Q06710). Description: inhibitors of PAX8-driven TPO luciferase reporter, dose response, RMG-I cells, cherry-pick (AID 687027).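 Note: luciferase reporter driven by Pax8 target thyroperoxidase promoter measured by SteadyGlo luminescence.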 It is filed as functional, cell-based. A general note: Reporter assays use an easily measured gene product as a stand-in for the process of interest.
Assay [11] can be described thus: off-target signal loss in HeLa-CEM21 co-culture – HeLa F-luc CTL cells, cherry-picked, counter-screen for HIV-1 Env fusion inhibitor project, dose response (AID 652040).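 Note: potency for signal decrease marking cytotoxic or nonspecific inhibition.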 Format: functional, cell-based.
Assay [12] can be described thus: inhibitors of clade B AD8 Env fusion, dose response, cell-based, cherry-pick (AID 652062).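 Note: luciferase signal from cell-cell fusion driven by HIV-1 clade B AD8 Env; potency is for inhibitors of fusion seen as a drop in luminescence.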 Format: functional.
The nature of assay [13]: PAX2 cell-based inhibition, dose response, selectivity assay for PAX8 inhibitor project, plate reader, dry powder samples (AID 743048).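 Note: HEK293 cells carrying a WT1 promoter luciferase reporter driven by expressed Pax2; potency is for inhibition of Pax2 driven reporter signal.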 Format: functional.
A short description of assay [14]: A2780 ovarian cancer cell cytotoxicity, dose response, cytotoxicity control, plate reader, dry powder samples (AID 743046). Format: functional, cell-based.
Assay [15] can be described thus: NIH:OVCAR-3 ovarian cancer cell cytotoxicity, dose response, PAX8 inhibitor project, plate reader, dry powder samples (AID 743044). Format: functional, cell-based.
Assay [16] in a line: PAX5 activity inhibitors, dose response, selectivity assay for PAX8 inhibitor project, cell-based, plate reader, dry powder samples (AID 743047).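 Note: HEK293 cells carrying a Pax5 driven CD19 promoter luciferase reporter; potency of inhibitors that lower reporter luminescence.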 Format: functional.
Assay [17] is described as follows: cytotoxicity in COV434 cells, dose response, cytotoxicity control for PAX8 inhibitor project, cell-based, plate reader, dry powder, SA7 (AID 743145). It is filed as functional.
Assay [18] can be described thus: cytotoxicity in OV-90 ovarian cancer cells, dose response, PAX8 inhibitor project, cell-based, plate reader, dry powder, SA8 (AID 743149). It is filed as functional.
Assay [19] is described as follows: cytotoxicity dependent on PAX8, dose response, cell-based, plate reader, dry powder (AID 743049). It is filed as functional.
The next assay relates to Vero. Description: cells. Format: functional, cell-based. As to conditions: Chlorocebus sabaeus.
Assay [20] is described as follows: cells. It is filed as functional, cell-based.
The target of assay [21] is T2, Trace amine-associated receptor 1 (Homo sapiens, UniProt Q96RJ0).
T2 sequence (Q96RJ0 whole entry): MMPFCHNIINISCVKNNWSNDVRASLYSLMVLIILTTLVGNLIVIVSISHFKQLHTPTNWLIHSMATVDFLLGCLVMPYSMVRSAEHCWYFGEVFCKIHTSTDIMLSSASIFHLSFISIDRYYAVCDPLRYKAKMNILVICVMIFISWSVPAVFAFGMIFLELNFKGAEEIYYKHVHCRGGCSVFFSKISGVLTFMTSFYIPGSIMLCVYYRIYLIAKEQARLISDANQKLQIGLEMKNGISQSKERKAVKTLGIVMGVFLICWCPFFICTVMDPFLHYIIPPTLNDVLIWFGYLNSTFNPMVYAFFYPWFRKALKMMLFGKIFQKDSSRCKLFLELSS
Description: Fluorescence-based cell-based high throughput dose response assay to identify agonists of the human trace amine associated receptor 1 (TAAR1). Format: functional.

In assay [22] the target is T2, Trace amine-associated receptor 1. Description: Counterscreen for agonists of the human trace amine associated receptor 1 (hTAAR1): Fluorescence-based cell-based high throughput dose response assay to identify hTAAR1 agonist that also desensitize TAAR1 receptor response. It is filed as functional.
Assay [23] is described as follows: cells. Format: functional, cell-based. This is another data set of the same source.
The target in assay [24] is T3, Short transient receptor potential channel 4 (Mus musculus, UniProt Q9QUQ5).
T3 sequence (Q9QUQ5 whole entry): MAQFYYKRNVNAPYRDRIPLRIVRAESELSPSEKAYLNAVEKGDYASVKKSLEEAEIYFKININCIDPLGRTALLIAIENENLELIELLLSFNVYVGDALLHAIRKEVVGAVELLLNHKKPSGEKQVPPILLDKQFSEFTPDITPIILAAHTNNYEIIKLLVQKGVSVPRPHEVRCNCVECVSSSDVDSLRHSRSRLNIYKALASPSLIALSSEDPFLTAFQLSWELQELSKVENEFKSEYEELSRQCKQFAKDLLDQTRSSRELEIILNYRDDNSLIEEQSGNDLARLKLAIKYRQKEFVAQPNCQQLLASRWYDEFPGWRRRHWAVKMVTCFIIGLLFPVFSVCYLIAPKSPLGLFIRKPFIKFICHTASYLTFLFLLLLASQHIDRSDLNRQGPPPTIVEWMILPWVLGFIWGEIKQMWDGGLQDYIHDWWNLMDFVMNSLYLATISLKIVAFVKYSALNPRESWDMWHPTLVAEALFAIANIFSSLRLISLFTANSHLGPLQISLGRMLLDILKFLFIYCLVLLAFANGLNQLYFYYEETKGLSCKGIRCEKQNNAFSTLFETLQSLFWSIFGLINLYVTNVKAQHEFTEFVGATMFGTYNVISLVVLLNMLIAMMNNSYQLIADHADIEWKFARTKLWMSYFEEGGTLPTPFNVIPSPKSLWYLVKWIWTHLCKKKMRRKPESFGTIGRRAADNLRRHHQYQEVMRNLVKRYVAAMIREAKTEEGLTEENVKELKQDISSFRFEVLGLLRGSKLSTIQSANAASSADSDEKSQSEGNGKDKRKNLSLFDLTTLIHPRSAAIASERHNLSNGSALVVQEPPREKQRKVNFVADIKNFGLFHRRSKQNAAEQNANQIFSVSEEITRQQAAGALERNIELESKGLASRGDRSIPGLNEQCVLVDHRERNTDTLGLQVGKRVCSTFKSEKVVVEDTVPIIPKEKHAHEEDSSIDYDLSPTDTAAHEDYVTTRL
Description: mouse TRPC4 channel activators, dose response, cell-based, HEK293 TRPC4/mu-opioid, Fluo-4 calcium (AID 434937). Format: functional.

Assay [25] addresses Delta-type opioid receptor (Homo sapiens, UniProt P41143). Description: Counterscreen for agonists of heterodimerization of the mu 1 (OPRM1) and delta 1 (OPRD1) opioid receptors: Luminescence-based cell-based high throughput dose response assay to identify agonists of OPRD1 homodimerization. [Related pubchem assays (depositor defined):AID504326, AID504355, AID504692, AID504904, AID504905]. Format: functional.

The target in another assay is Mu-type opioid receptor (Homo sapiens, UniProt P35372). Description: Counterscreen for agonists of heterodimerization of the mu 1 (OPRM1) and delta 1 (OPRD1) opioid receptors: Luminescence-based cell-based high throughput dose response assay to identify agonists of OPRM1 homodimerization. It is filed as functional.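 Note: U2OS cells expressing OPRM1 and beta-arrestin as split beta-galactosidase partners.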
The target of assay [26] is 5-hydroxytryptamine receptor 5A (Homo sapiens, UniProt P47898). Description: Counterscreen for agonists of OPRM1-OPRD1 heterodimerization: luminescence-based cell-based high throughput dose response assay to identify agonists of 5-hydroxytryptamine (serotonin) 5A receptor (HTR5A). [Related pubchem assays (depositor defined):AID504326, AID504355, AID504692, AID504904, AID504905]. Format: functional.
Chain of 5-hydroxytryptamine receptor 5A (P47898 whole entry): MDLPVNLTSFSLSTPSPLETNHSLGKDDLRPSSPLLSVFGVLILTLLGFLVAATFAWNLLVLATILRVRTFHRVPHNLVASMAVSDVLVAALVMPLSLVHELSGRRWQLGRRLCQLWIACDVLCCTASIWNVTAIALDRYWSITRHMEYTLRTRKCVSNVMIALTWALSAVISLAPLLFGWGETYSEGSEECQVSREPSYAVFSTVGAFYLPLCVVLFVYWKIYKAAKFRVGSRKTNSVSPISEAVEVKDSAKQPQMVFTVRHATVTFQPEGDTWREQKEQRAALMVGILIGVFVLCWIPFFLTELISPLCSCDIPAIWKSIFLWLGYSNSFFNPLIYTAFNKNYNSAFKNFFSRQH

Chain of Delta-type opioid receptor (P41143 whole entry): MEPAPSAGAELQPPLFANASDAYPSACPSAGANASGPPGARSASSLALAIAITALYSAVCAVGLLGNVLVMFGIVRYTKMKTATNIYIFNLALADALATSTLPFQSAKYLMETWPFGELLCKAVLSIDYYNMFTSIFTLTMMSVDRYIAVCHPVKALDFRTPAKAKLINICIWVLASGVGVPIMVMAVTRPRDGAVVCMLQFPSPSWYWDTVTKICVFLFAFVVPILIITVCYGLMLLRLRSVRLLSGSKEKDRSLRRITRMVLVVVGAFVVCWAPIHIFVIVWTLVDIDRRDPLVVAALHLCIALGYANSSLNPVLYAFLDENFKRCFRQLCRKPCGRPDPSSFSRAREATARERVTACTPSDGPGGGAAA
Chain of Paired box protein Pax-8 (Q06710 whole entry, the tested form may be a part): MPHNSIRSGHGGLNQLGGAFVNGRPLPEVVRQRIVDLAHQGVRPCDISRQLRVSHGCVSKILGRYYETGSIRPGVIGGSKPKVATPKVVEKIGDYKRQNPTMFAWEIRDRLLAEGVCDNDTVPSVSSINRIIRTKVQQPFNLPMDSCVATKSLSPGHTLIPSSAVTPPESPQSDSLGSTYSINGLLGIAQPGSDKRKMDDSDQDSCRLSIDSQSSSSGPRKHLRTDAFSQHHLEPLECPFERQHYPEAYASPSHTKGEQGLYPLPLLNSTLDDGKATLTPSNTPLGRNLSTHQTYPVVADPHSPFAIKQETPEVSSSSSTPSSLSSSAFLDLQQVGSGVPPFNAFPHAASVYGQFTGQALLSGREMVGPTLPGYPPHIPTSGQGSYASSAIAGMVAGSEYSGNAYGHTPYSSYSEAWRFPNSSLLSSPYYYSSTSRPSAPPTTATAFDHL
Chain of Nucleotide-binding oligomerization domain-containing protein 2 (Q9HC29 whole entry, the tested form may be a part): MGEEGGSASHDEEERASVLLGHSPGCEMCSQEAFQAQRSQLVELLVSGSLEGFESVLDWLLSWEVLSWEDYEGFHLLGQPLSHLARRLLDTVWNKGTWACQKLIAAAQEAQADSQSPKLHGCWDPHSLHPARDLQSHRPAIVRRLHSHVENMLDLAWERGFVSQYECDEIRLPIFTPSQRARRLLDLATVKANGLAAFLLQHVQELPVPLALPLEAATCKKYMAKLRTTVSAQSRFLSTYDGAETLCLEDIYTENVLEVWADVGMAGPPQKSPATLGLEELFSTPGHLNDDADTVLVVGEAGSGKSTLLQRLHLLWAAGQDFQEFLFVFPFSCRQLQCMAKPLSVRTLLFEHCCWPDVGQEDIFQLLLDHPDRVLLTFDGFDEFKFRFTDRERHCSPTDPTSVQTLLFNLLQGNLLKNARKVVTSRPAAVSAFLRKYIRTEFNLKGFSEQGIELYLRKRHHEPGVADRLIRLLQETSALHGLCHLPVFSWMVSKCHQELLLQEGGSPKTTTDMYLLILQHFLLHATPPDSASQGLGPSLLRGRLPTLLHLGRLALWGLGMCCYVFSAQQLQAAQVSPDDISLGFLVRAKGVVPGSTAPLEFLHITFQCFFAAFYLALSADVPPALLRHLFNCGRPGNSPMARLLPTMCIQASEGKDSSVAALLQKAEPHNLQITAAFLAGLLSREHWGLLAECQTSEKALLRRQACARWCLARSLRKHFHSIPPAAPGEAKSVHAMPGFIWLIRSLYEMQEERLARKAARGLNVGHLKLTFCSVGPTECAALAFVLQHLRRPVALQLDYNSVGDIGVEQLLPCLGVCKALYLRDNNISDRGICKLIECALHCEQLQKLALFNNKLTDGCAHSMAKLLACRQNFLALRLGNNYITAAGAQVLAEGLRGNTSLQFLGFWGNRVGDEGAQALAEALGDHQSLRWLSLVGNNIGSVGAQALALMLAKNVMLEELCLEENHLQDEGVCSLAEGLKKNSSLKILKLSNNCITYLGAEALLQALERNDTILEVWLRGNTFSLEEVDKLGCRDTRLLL
Chain of Mu-type opioid receptor (P35372 whole entry): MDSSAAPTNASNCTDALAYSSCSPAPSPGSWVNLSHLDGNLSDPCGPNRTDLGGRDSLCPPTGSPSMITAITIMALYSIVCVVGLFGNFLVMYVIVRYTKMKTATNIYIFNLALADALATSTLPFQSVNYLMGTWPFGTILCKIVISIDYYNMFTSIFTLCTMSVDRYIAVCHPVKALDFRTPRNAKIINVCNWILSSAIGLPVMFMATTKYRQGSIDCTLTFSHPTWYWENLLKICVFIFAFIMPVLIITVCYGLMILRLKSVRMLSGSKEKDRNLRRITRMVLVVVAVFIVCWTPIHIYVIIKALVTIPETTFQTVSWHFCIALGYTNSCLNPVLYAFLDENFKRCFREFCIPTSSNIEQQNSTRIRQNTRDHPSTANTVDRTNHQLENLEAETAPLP

On to `CCSCCc1nnc(NC(=O)Nc2cccc(C(F)(F)F)c2)s1`, for which the EC50 with HEK293 [1] was 2.16 µM (active); in [4], 15 µM (active). Further, the IC50 in the assay on HEK293 [2] is 2.57 µM (active); in the assay with HEK293 [3], 9.13 µM (active); in the assay with HEK293 [5] it was 2.68 µM (active); in the assay with HEK293 [6] it was > 20 µM (inactive). Besides, the AC50 in [7] was 8.99 µM (active); in the assay with INS1, 3.91 µM (active); with A-375, 6.62 µM (active); in [8] it was 5.97 µM (active); in assay [9], 5.2 µM (active); in assay [10], 4.07 µM (active). Besides, the AC50 was 7.31 µM (active) at Paired box protein Pax-8; 3.56 µM (active) in assay [11]; 7.84 µM (active) in [12]; 5.05 µM (active) in assay [13]; 8.04 µM (active) in assay [14]; 27.4 µM (active) in [15]. Moreover, the AC50 in assay [16] was 5.02 µM (active); in assay [17] it was 35.2 µM (active); in [18] it was > 100 µM (inactive); in assay [19], 23.1 µM (active).
Consider `CCCCOc1ccc(C(=O)Nc2ccc(N3CCN(C)CC3)cc2)cc1`, for which the IC50 with Vero is 24.8 µM (active); in the assay “cells [20]” it was > 29.9 µM (inactive); in assay [22] it was > 29.9 µM (inactive). Moreover, the EC50 in assay [21] was 10.2 µM (inactive); in the assay “cells [23]” it was > 29.9 µM (inactive).
Consider `OCC1(CCc2ccccc2)CCN(Cc2cccn2-c2cccnc2)CC1`, for which the EC50 in [24] was 0.149 µM (active); in assay [25], > 92.5 µM (inactive); at Mu-type opioid receptor, 52.6 µM (inactive); in assay [26], > 92.5 µM (inactive).

For orientation: EC50 means the concentration at which the effect is half-maximal. Usually IC50 stands for the concentration at which inhibition is half-maximal. The AC50 is the concentration at which the activity in the assay is half-maximal.
